Activity calls are given as the source filed them. The calls are words filed in the database; no cut-off is given here.

The test system of data set [1] is BaF3. Briefly: Induction of apoptosis in mouse BA/F3 cells expressing Bcr-Abl T315I mutant assessed as late apoptotic cells at 20 nM after 24 hrs using annexin-V/7-AAD staining by FACS analysis (reference value: 2.2%). Type of data set: functional.
Another data set relates to Rattus norvegicus. Briefly: AUC (0 to infinity) in Sprague-Dawley rat at 25 mg/kg, po. Type of data set: ADME, organism-based. The arrangement: dose 25 mg/kg, time infinity, route oral. The note with it: in vivo.
Data set [2] has as its system BaF3. Put plainly: Induction of apoptosis in mouse BA/F3 cells expressing Bcr-Abl T315I mutant assessed as late apoptotic cells after 24 hrs using annexin-V/7-AAD staining by FACS analysis. Type of data set: functional, cell-based.
Data set [3] relates to BaF3. Briefly: Induction of apoptosis in mouse BA/F3 cells expressing Bcr-Abl T315I mutant assessed as early apoptotic cells at 500 nM after 24 hrs using annexin-V/7-AAD staining by FACS analysis (reference value: 4.6%). It is filed as functional. On the technique in general: A flow cytometer gives signals particle by particle.
In data set [4] the test system is BaF3. Briefly: Induction of apoptosis in mouse BA/F3 cells expressing Bcr-Abl T315I mutant assessed as late apoptotic cells at 500 nM after 24 hrs using annexin-V/7-AAD staining by FACS analysis (reference value: 2.2%). It is filed as functional.
A short description of data set [5]: Cell cycle arrest in mouse BA/F3 cells expressing Bcr-Abl T315I mutant assessed as accumulation at G0/G1 phase at 500 nM after 24 hrs using propidium iodide staining by flow cytometry (reference value: 51.92%). The note with it: BaF3. It is filed as functional, cell-based.
Data set [6] deals with BaF3. Put plainly: Induction of apoptosis in mouse BA/F3 cells expressing Bcr-Abl T315I mutant assessed as late apoptotic cells at 4 nM after 24 hrs using annexin-V/7-AAD staining by FACS analysis (reference value: 2.2%). Type of data set: functional.
Data set [7] concerns K562. Put plainly: Antitumor activity against human K562 cells expressing wild type Bcr-Abl xenografted in mouse assessed as complete eradication of tumor at 10 mg/kg, po qd for 8 days. It is filed as functional, organism-based. Background: Xenograft models place foreign cells or tissue in a host animal.
Data set [8] relates to K562. Put plainly: Cell cycle arrest in human K562 cells expressing wild type Bcr-Abl assessed as accumulation at G0/G1 phase at 0.8 nM after 24 hrs using propidium iodide staining by flow cytometry (reference value: 64.03%). Type of data set: functional.
A further data set in a line: cells. The note with it: Mus musculus, BaF3, 72 h.
Data set [9] relates to K562. Briefly: Induction of apoptosis in human K562 cells expressing wild type Bcr-Abl assessed as early apoptotic cells at 100 nM after 24 hrs using annexin-V/7-AAD staining by FACS analysis (reference value: 7.3%). Type of data set: functional.
For data set [10], the system named is K562. Put plainly: Induction of apoptosis in human K562 cells expressing wild type Bcr-Abl assessed as late apoptotic cells after 24 hrs using annexin-V/7-AAD staining by FACS analysis. Type of data set: functional, cell-based.
The test system of data set [11] is K562. Put plainly: Cell cycle arrest in human K562 cells expressing wild type Bcr-Abl assessed as accumulation at G0/G1 phase at 20 nM after 24 hrs using propidium iodide staining by flow cytometry (reference value: 64.03%). Type of data set: functional.
The subject of data set [12] is BaF3. Briefly: Induction of apoptosis in mouse BA/F3 cells expressing Bcr-Abl T315I mutant assessed as early apoptotic cells at 20 nM after 24 hrs using annexin-V/7-AAD staining by FACS analysis (reference value: 4.6%). Type of data set: functional.
The subject of data set [13] is BaF3. Put plainly: Induction of apoptosis in mouse BA/F3 cells expressing Bcr-Abl T315I mutant assessed as late apoptotic cells at 100 nM after 24 hrs using annexin-V/7-AAD staining by FACS analysis (reference value: 2.2%). It is filed as functional.
A short description of data set [14]: Ratio of Cmax in Sprague-Dawley rat at 25 mg/kg, po to IC50 for Bcr-Abl T315I mutant (unknown origin). It is filed as ADME, organism-based. The note with it: in vivo.
Data set [15] relates to K562. Put plainly: Induction of apoptosis in human K562 cells expressing wild type Bcr-Abl assessed as early apoptotic cells at 20 nM after 24 hrs using annexin-V/7-AAD staining by FACS analysis (reference value: 7.3%). Type of data set: functional.
For data set [16], the system named is Tyrosine-protein kinase ABL1 (Mus musculus), P00520 [T315I]. Briefly: Inhibition of Bcr-Abl T315I mutant phosphorylation in mouse BA/F3 cells after 4 hrs by Western blot analysis. It is filed as cell-based. To be noted: BaF3. Background: In western blotting, separated proteins are transferred to a membrane and probed.
Sequence of Tyrosine-protein kinase ABL1 (Mus musculus), P00520 [T315I] (P00520 whole entry T315I): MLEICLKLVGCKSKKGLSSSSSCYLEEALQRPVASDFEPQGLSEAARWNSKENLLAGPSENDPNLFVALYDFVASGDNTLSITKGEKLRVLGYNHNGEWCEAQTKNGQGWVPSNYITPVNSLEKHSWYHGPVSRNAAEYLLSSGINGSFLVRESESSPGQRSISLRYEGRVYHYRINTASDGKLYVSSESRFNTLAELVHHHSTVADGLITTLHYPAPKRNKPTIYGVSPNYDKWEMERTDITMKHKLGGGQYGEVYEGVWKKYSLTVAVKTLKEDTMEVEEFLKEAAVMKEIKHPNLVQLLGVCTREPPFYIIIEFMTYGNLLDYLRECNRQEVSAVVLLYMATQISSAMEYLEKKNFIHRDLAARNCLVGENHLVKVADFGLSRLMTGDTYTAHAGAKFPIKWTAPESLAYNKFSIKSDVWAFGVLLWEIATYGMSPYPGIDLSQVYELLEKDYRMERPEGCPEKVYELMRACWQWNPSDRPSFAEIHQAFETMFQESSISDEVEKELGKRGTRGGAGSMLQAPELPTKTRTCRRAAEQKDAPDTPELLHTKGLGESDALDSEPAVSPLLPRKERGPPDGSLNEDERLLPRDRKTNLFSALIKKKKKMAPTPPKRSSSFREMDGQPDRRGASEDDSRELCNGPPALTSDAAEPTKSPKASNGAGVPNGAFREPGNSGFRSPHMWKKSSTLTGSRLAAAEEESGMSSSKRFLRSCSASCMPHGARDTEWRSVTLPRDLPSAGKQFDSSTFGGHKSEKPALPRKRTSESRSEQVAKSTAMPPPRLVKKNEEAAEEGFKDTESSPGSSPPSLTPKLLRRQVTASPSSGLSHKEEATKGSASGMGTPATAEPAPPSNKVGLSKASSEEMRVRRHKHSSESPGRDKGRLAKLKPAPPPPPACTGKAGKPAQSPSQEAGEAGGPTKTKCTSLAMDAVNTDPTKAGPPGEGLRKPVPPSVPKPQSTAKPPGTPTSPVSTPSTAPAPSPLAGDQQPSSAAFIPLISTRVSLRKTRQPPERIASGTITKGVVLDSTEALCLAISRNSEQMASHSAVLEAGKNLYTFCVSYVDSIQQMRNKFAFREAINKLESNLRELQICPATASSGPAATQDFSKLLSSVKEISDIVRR

One may read the IC50 as the concentration at which inhibition is half-maximal. A low value points to greater potency. Consider `Cc1cn(-c2cc(NC(=O)c3ccc(C)c(C#Cc4cnc(NC5CC5)nc4)c3)cc(C(F)(F)F)c2)cn1`, for which the Activity was 4.1% in the data set on BaF3 [1]; “Dose-dependent effect” in the data set with BaF3 [2]; 10.2% with BaF3 [3]; 4.3% with BaF3 [4]; 70.2% in data set [5]; 3.3% in the data set with BaF3 [6]. Moreover, the Activity is 67.61% in the data set with K562 [8]; 73.6% in the data set with K562 [9]; “Dose-dependent effect” with K562 [10]; 87.03% in the data set with K562 [11]; 6.6% in the data set with BaF3 [12]; 4% in the data set with BaF3 [13]. In addition, in the data set with K562 [15], the Activity worked out at 14.2%. In addition, in the data set on Rattus norvegicus, the AUC was 251684 µg/L/h. Moreover, the outcome with K562 [7] was Active. Moreover, the IC50 in “cells” is 50 nM. In addition, the Ratio in data set [14] is on record as 1333. Besides, in [16], the inhibition result was “Dose-dependent effect”.

The record behind these values is ChEMBL document CHEMBL3603836, “Hybrid pyrimidine alkynyls inhibit the clinically resistance related Bcr-Abl(T315I) mutant” (Bioorg Med Chem Lett, 2015).
